Experimental data as given in patent US20090239868A1 (priority 2007, published 2009).

Tested on: TGF-β induced PAI-1 production
Experiment: TGF-β induced PAI-1 production in HepG2 cells (Human Serpin E1/PAI-1 DuoSet)
Format: cell-based
Procedure: HepG2 cells were seeded on a 96-well culture plate by 2×10^4 cells/well, and were incubated for 24 hours in the MEM medium containing 1% NEAA (Non-Essential Amino Acids), 1 mM pyruvate, and 10% FBS. Then, the medium was changed to a MEM medium containing 1% NEAA, 1 mM pyruvate and 1% FBS, and the cells were further incubated for 24 hours. Subsequently, after the medium was changed to a MEM medium containing 1% NEAA, 1 mM pyruvate and 1% FBS, and then the cells were treated with the test substances (final concentration: 1 μM or 0.1 μM) for one hour, TGF-β1 (final concentration: 1 ng/mL) was added and the cells were further incubated for 24 hours. As controls, a culture solution added TGF-β1 only, and a culture solution cultured without neither the test substances nor TGF-β1 were prepared. After the incubation, the PAI-1 amount was measured using Human Serpin E1/PAI-1 DuoSet (R&D Systems). The PAI-1 amount when treated with TGF-β1 only being “100%”, and the PAI-1 amount when treated without neither the test substances nor TGF-β1 being “0%”, the PAI-1 inhibition ratios of each test substance were calculated.

SMILES | Inhibition Ratio (PAI-1) (Compound Concentration: 1 μM) | Inhibition Ratio (PAI-1) (Compound Concentration: 0.1 μM)
CCCCc1ccc(NC(=O)c2cc(Cl)ccc2O)cc1 [(78)] | 80.6% | –
O=C(Nc1cc(C(F)(F)F)cc(C(F)(F)F)c1)c1c(O)cccc1O [(55)] | >90% | –
CC(C)(C#Cc1ccccc1)c1ccc(O)c(C(=O)Nc2cc(C(F)(F)F)cc(C(F)(F)F)c2)c1 [(15)] | >90% | –
Cc1ccc(O)c(C(=O)Nc2cc(C(F)(F)F)cc(C(F)(F)F)c2)c1 [(10)] | 89.2% | –
O=C(Nc1cc(C(F)(F)F)cc(C(F)(F)F)c1)c1ccc(-c2ccccc2)cc1O [(106)] | >90% | –
O=C(Nc1ccc(OC(F)(F)F)cc1)c1cc(Cl)ccc1O [(70)] | >90% | –
O=C(Nc1cc(C(F)(F)F)cc(C(F)(F)F)c1)c1cc(Br)ccc1O [(6)] | >90% | 82.3%
O=C(Nc1cccc(Cl)c1)c1cc(Br)ccc1O [(44)] | 82.4% | –
CC(C)c1cc(Br)cc(C(=O)Nc2cc(C(F)(F)F)cc(C(F)(F)F)c2)c1O [(99)] | 89.4% | 59.1%
O=C(Nc1cc(C(F)(F)F)cc(C(F)(F)F)c1)c1cc(Br)cc(-c2ccccc2)c1O [(103)] | >90% | –
CC(C)(C)c1ccc(NC(=O)c2cc(Cl)ccc2O)cc1 [(72)] | 71.4% | –
O=C(Nc1ccc(F)c(F)c1)c1cc(Cl)ccc1O [(85)] | 84.0% | –
O=C(Nc1ccc(S(=O)(=O)C(F)(F)F)cc1)c1cc(Cl)ccc1O [(84)] | >90% | –
O=C(Nc1cc(C(F)(F)F)cc(C(F)(F)F)c1)c1cc(Cl)cc(Cl)c1O [(57)] | >90% | –
O=C(Nc1cc(C(F)(F)F)cc(C(F)(F)F)c1)c1cc(-c2ccccc2)ccc1O [(17)] | 82.9% | –
COC(=O)c1ccc(O)c(C(=O)Nc2cc(C(F)(F)F)cc(C(F)(F)F)c2)c1 [(28)] | >90% | –
CC(C)(/C=C/c1ccccc1)c1ccc(O)c(C(=O)Nc2cc(C(F)(F)F)cc(C(F)(F)F)c2)c1 [(14)] | 86.6% | –
O=C(Nc1ccc(Cl)cc1)c1cc(Br)ccc1O [(45)] | >90% | –
O=C(Nc1ccc(-c2ccccc2)cc1)c1cc(Cl)ccc1O [(96)] | 71.0% | –
O=C(Nc1cccc(C(F)(F)F)c1)c1cc(Cl)ccc1O [(67)] | >90% | –
O=C(Nc1cc(C(F)(F)F)cc(C(F)(F)F)c1)c1cc([N+](=O)[O-])ccc1O [(8)] | 85.9% | 52.8%
CC(C)c1cccc(C(=O)Nc2cc(C(F)(F)F)cc(C(F)(F)F)c2)c1O [(98)] | 42.2% | –

SMILES | Inhibition Ratio (PAI-1) (Compound Concentration: 1 μM) | Inhibition Ratio (PAI-1) (Compound Concentration: 0.1 μM)
O=C(Nc1cc(C(F)(F)F)cc(C(F)(F)F)c1)c1cc(I)ccc1O [(7)] | >90% | –
O=C(Nc1cc(Cl)c(Cl)c(Cl)c1)c1cc(Br)ccc1O [(49)] | 70.7% | –
O=C(Nc1cc(Cl)cc(Cl)c1)c1ccccc1O [(47)] | 35.6% | –
O=C(Nc1cccc(OC(F)(F)F)c1)c1cc(Cl)ccc1O [(68)] | >90% | –
O=C(Nc1ccc(C2CCCCC2)cc1)c1cc(Cl)ccc1O [(74)] | 87.3% | –
Cc1cc(Br)cc(C(=O)Nc2cc(C(F)(F)F)cc(C(F)(F)F)c2)c1O [(100)] | >90% | –
CCCCCCOc1cccc(NC(=O)c2cc(Cl)ccc2O)c1 [(95)] | 60.1% | –
CC(C)(C)c1cc(NC(=O)c2cc(Cl)ccc2O)cc(C(C)(C)C)c1 [(51)] | 42.8% | –
CC(C)(C)c1cccc(NC(=O)c2cc(Cl)ccc2O)c1 [(92)] | >90% | –
O=C(Nc1ccc(OC(F)F)cc1)c1cc(Cl)ccc1O [(90)] | >90% | –
O=C(Nc1cc(Cl)cc(Cl)c1)c1ccc(Cl)cc1O [(48)] | >90% | –
O=C(Nc1cc(C(F)(F)F)cc(C(F)(F)F)c1)c1ccc(Cl)cc1O [(33)] | >90% | 63.3%
CCCCCCOc1ccc(S(C)(=O)=O)cc1NC(=O)c1cc(Cl)ccc1O [(64)] | 73.6% | –
O=C(Nc1cc(C(F)(F)F)cc(C(F)(F)F)c1)c1cccc(Cl)c1O [(61)] | >90% | –
O=C(Nc1cccc(C(F)(F)F)c1F)c1cc(Cl)ccc1O [(35)] | >90% | –
Cc1ccc(C(=O)C(C)(C)C)cc1NC(=O)c1cc(Cl)ccc1O [(65)] | 85.5% | –
O=C(Nc1cc(F)cc(C(F)(F)F)c1)c1cc(Cl)ccc1O [(37)] | >90% | –
CC(=O)Oc1ccccc1C(=O)Nc1cc(Cl)cc(Cl)c1 [(54)] | 78.9% | –
O=C(Nc1ccc(SC(F)(F)F)cc1)c1cc(Cl)ccc1O [(83)] | >90% | –
CCC(C)c1ccc(NC(=O)c2cc(Cl)ccc2O)cc1 (stereo not drawn) [(87)] | 89.6% | –
O=C(Nc1ccc(C(F)(F)F)cc1)c1cc(Cl)ccc1O [(43)] | >90% | –
CC(C)(C)c1ccc(O)c(C(=O)Nc2cc(C(F)(F)F)cc(C(F)(F)F)c2)c1 [(11)] | 70.5% | –

SMILES | Inhibition Ratio (PAI-1) (Compound Concentration: 1 μM) | Inhibition Ratio (PAI-1) (Compound Concentration: 0.1 μM)
O=C(Nc1ccccc1Cl)c1cc(Cl)ccc1O [(77)] | 74.3% | –
CC(=O)c1ccc(O)c(C(=O)Nc2cc(C(F)(F)F)cc(C(F)(F)F)c2)c1 [(26)] | 46.8% | –
O=C(Nc1cc(C(F)(F)F)cc(C(F)(F)F)c1)c1cc(C(F)(F)C(F)(F)F)ccc1O [(20)] | >90% | –
N#Cc1ccc(O)c(C(=O)Nc2cc(C(F)(F)F)cc(C(F)(F)F)c2)c1 [(9)] | >90% | 59.4%
O=C(Nc1cc(C(F)(F)F)cc(C(F)(F)F)c1)c1cccc(-c2ccccc2)c1O [(97)] | 79.5% | –
N#Cc1ccc(NC(=O)c2cc(Br)ccc2O)cc1C(F)(F)F [(39)] | >90% | –
O=C(Nc1ccc(Cl)cc1Cl)c1cc(Cl)ccc1O [(71)] | >90% | –
CC(=O)Oc1ccccc1C(=O)Nc1cc(C(F)(F)F)cc(C(F)(F)F)c1 [(31)] | 75.2% | –
CC(=O)Oc1ccc(Cl)cc1C(=O)Nc1cc(C(F)(F)F)cc(C(F)(F)F)c1 [(32)] | >90% | –
O=C(Nc1cccc(S(=O)(=O)C(F)(F)F)c1)c1cc(Cl)ccc1O [(94)] | >90% | –
O=C(Nc1cc(OCC(F)(F)F)cc(C(F)(F)F)c1)c1cc(Cl)ccc1O [(63)] | 79.5% | –
O=C(Nc1ccc(F)c(C(F)(F)F)c1)c1cc(Cl)ccc1O [(36)] | >90% | –
COc1cc(NC(=O)c2cc(Cl)ccc2O)cc(-c2ccccc2)c1 [(53)] | 52.4% | –
Cc1c(NC(=O)c2cc(Cl)ccc2O)cccc1C(F)(F)F [(40)] | >90% | –
O=C(Nc1cc(F)cc(F)c1)c1cc(Br)ccc1O [(46)] | >90% | –
Cc1ccc(C(=O)Nc2cc(C(F)(F)F)cc(C(F)(F)F)c2)c(O)c1 [(56)] | >90% | –
CC(C)(CCc1ccccc1)c1ccc(O)c(C(=O)Nc2cc(C(F)(F)F)cc(C(F)(F)F)c2)c1 [(18)] | 55.4% | –
O=C(Nc1cccc(-c2ccccc2)c1)c1cc(Cl)ccc1O [(52)] | 81.0% | –
CCCCCCc1ccc(NC(=O)c2cc(Cl)ccc2O)cc1 [(73)] | >90% | –
Cc1cc(C)cc(NC(=O)c2cc(Br)ccc2O)c1 [(50)] | 66.0% | –
